Earlier results on one substance are cited in US8912167B2, “Heparin-based compositions and methods for the inhibition of metastasis” (priority 2011, dated 2014).

For this data set the following is noted: under physiological conditions.

Regarding “tetra-[5-(L)-lysyl-amino-O-methylsalicylamide]”, the binding to heparin result was “bind heparin tightly and essentially irreversibly”.
